“Also recorded” adds a separate entry of the source.
Tests used:
[1] = system: pyocyanin production in P. aeruginosa PAO1; assay: QS response (pyocyanin production); assay type: cell-based; settings: pure culture P. aeruginosa PAO1, DPD analogs (100 μM)
Procedure: Identifying Modulators of P. aeruginosa QS. DPD analogs (100 μM) were screened for activity in P. aeruginosa PAO1 by monitoring pyocyanin production (FIG. 34b and FIG. 38).
The cells were grown with the analog at 3 mL total volume in 50 mL flasks in LB medium, with continuous shaking. Between 22-24 h, when the cells turned green after pyocyanin secretion, the pigment was extracted. The pyocyanin quantification assay was conducted as described. 2 mL chloroform was added to the 3 mL culture and pipetted up and down. 1 mL of the chloroform was transferred to a separate tube and the pyocyanin was re-extracted into 200 μL of 0.2 M HCl. The absorbance of the solution was measured at OD 520 nm. To calculate the concentration of pyocyanin extracted as μg/mL, the OD at 520 nm was multiplied by 17.07.

E. coli = assay: DPD analogs and representative bacterial species affected (Table 1); assay type: cell-based; parameters: key: x: DPD Analogs and representative bacterial species affected
[2] = system: lsr expression in E. coli (lsr-lacZ reporter strains); assay: QS response (lsr expression): AI-2 dependent β-galactosidase production, Miller assay; assay type: cell-based, Escherichia coli; settings: for IC50: concentration reducing lsr expression (β-galactosidase production) to 50% in the presence of 20 μM exogenously added synthetic DPD, read-out: IC50 of analog (nM) to inhibit QS in E. coli; for inhibition of AI-2-mediated lsr expression (β-galactosidase), in words: 20 μM AI-2 (DPD) + 20 μM analog
Procedure: (§1) The panel of C1-alkyl analogs was screened to identify QS modulators in the enteric bacteria E. coli and S. typhimurium. Transcription of the QS associated lsr operon, by using lsr-lacZ reporter strains (Table 2) which produce β-galactosidase in response to added AI-2 was monitored. In order to first establish if the analogs were agonists or antagonists in the QS circuit, the analogs were incubated with E. coli LW7 pLW11 and S. typhimurium MET715 (FIG. 19a-b) both of which are luxS^−. None of the analogs, except ethyl-DPD behaved as agonists for lsr expression. Previous studies investigating AI-2 antagonism in P. aeruginosa or in S. typhimurium were carried out using chemically synthesized AI-2 added to luxS^− cells. […] The same trends were obtained by adding a 1:1 ratio of enzymatically synthesized AI-2 and DPD analogs to the luxS^− strains E. coli LW7 pLW11 and S. typhimurium MET715 (FIG. 11a-b). None of the tested DPD analogs were bacteriocidal or bacteriostatic as the OD600 values of E. coli ZK126 pLW11 and S. typhimurium MET708 in the presence and absence of the analogs were similar (FIG. 10). Though the QS circuitry of the enteric organisms, E. coli and S. typhimurium are homologous they respond differently to the DPD analogs. The E. coli QS circuitry is susceptible to being silenced by a variety of DPD analogs of different shapes and sizes whereas in S. typhimurium, only a handful of DPD analogs could antagonize the action of AI-2. […] Isobutyl-DPD emerged as an effective and non-species-specific quencher; causing significant lsr expression knockdowns in both E. coli and S. typhimurium.
(§2) The QS response indicated by lsr gene expression was analyzed in pure culture studies by culturing E. coli LW7 pLW11, E. coli ZK126 pLW11 and S. typhimurium MET708, S. typhimurium MET715 overnight in LB medium supplemented with appropriate antibiotics as stated previously. These cells were then diluted into fresh LB medium (with antibiotics) and grown to an OD600 of 0.8-1.0 at 30° C., 250 rpm. Cells were then collected by centrifugation at 10,000×g for 10 minutes, and resuspended in 10 mM phosphate buffer. AI-2 (20 μM) and the respective analog (20 μM) were added to the E. coli or S. typhimurium suspension for 2 hours at 37° C. AI-2 dependent β-galactosidase production was quantified by the Miller assay.
(§3) The QS response indicated by lsr gene expression was analyzed in pure culture studies by culturing E. coli LW7 pLW11 and S. typhimurium MET715 overnight at 30° C. in LB medium supplemented with appropriate antibiotics as stated previously. These cells were then diluted into fresh LB medium (with antibiotics) and grown to an OD600 of 0.4-0.8 at 37° C., 250 rpm. Cells were then collected by centrifugation at 10,000×g for 10 min and resuspended in 10 mM phosphate buffer. AI-2 (20 μM) and the respective analog (20 μM) were added to the E. coli or S. typhimurium suspension for 2 h at 37° C. AI-2 dependent β-galactosidase production was quantified by the Miller assay.
(§4) The QS response indicated by lsr gene expression was analyzed in pure culture studies by culturing E. coli LW7 pLW11, E. coli ZK126 pLW11 and S. typhimurium MET708, S. typhimurium MET715 overnight in LB medium individually supplemented with appropriate antibiotics, as specified above. These cells were diluted into fresh LB medium (with antibiotics) and grown to an OD600 of 0.8-1.0 at 30° C., 250 rpm. Cells were collected by centrifugation at 10,000×g for 10 minutes, and resuspended in 10 mM phosphate buffer. AI-2 (20 μM) and the respective analog (20 μM) were added to the E. coli or S. typhimurium suspension for 2 hours at 37° C. AI-2 dependent β-galactosidase production was quantified by the Miller assay.

[3] = target: lsr expression in S. typhimurium (lsr-lacZ reporter strains); assay: as above; assay type: cell-based, Salmonella typhimurium; settings: for IC50: concentration reducing lsr expression (β-galactosidase production) to 50% in the presence of 20 μM exogenously added synthetic DPD, read-out: IC50 of analog (nM) to inhibit QS in S. typhimurium
Procedure: as §1, §2, §3, §4

LsrK = target: T1, LsrK (Escherichia coli, UniProt P77432); assay: In vitro phosphorylation of analogs by LsrK (TLC, autoradiography); assay type: biochemical, E. coli; settings: for phosphorylation by E. coli LsrK: incubation with LsrK in vitro for one hour (Example 6)
T1 construct: made in house; host or cells: E. coli BL21
T1 sequence (P77432 whole entry): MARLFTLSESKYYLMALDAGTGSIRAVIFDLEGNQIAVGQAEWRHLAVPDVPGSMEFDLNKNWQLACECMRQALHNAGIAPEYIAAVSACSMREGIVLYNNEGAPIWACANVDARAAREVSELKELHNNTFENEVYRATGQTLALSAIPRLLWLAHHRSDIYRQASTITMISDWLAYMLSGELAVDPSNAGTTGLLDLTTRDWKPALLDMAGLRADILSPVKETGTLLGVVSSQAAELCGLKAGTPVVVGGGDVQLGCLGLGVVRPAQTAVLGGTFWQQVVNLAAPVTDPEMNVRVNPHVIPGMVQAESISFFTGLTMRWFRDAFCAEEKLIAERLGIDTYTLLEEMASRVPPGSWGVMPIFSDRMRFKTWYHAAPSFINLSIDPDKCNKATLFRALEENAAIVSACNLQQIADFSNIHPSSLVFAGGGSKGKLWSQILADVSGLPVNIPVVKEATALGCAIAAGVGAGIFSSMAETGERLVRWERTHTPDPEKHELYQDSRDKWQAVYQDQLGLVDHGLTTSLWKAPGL
Procedure: LsrK was purified and from E. coli BL21 pET200-LsrK as described before. Phosphorylated analogs were synthesized by incubating 1 μM) LsrK with 40 μM ATP (Roche), […] of [γ-^32P] […] A 5 μL aliquot was then spotted onto a cellulose TLC plate (Selecto Scientific). The plate was developed using 0.8 M LiCl as the solvent, air dried and developed via autoradiography.
LsrK was purified from E. coli BL21 pET200-LsrK as described before. Phosphorylated analogs were synthesized by incubating (1 μM) LsrK with (40 μM) ATP (Roche), ([…]) of [P^32] […] An aliquot (2.5 μL) was then spotted onto a cellulose TLC plate (Selecto Scientific). The plate was developed using 0.8 M LiCl as the solvent, air dried and developed via autoradiography.

V. harveyi = assay: DPD analogs and representative bacterial species affected (Table 1); assay type: cell-based; parameters: key: x: DPD Analogs and representative bacterial species affected
S. mutans = assay: as above; assay type: cell-based; parameters: key: x: DPD Analogs and representative bacterial species affected
V. harveyi BB170 = assay: QS response (bioluminescence), trispecies synthetic ecosystem; assay type: cell-based; settings: LM media
Procedure: The effect of isobutyl-DPD or isopropyl-DPD on QS associated bioluminescence production by V. harveyi was recorded by measuring the light production from reporter strain, V. harveyi BB170. The analogs were added at concentrations of (20 μM or 40 μM) to V. harveyi BB170 which was assayed as previously described.
(§5) The S. typhimurium MET708, V. harveyi BB170 and E. coli W3110 pCT6 were each cultured separately overnight in LM medium supplemented with the appropriate antibiotic. V. harveyi BB170, S. typhimurium MET708 and E. coli MDAI-2 were diluted (1:4:8), respectively, into a single 1 ml volume of fresh LM medium without antibiotics. The co-culture was supplemented with either 20 μM or 40 μM analog initially and again after 3 and 5 hours of growth. The V. harveyi luminescence response was measured after 2.5 hours. The S. typhimurium lacZ (β-galactosidase) activity was measured after 4 hours. The E. coli response was determined after 8 hours, by fixing the cells with 1:1 cold 4% paraformaldehyde and using flow cytometric analysis. Samples were analyzed by flow cytometery (FACS Canto II, BD 394 Biosciences), with 20,000 gated events analyzed per sample.

S. typhimurium MET708 = assay: Trispecies synthetic ecosystem (S. typhimurium, V. harveyi, E. coli): β-galactosidase activity; assay type: cell-based; settings: trispecies co-culture, lacZ activity after 4 hours
Source text: (§6) To investigate the effect of the DPD analogs in a mixed bacterial environment, a synthetic ecosystem composed of three different bacterial populations was assembled. Specifically, S. typhimurium MET708, V. harveyi BB170 and E. coli W3110 (pCT6), each luxS^+ (Table 2), and each producing their native AI-2 were co-cultured in the same tubes. By design, each species was selected so that a different reporter probe would indicate the specific bacterium's QS response: S. typhimurium (MET708) expresses β-galactosidase; V. harveyi (BB170) elicits bioluminescience; and E. coli (W331) are engineered to synthesize GFP. In this way, their responses can be differentiated and quantified in response to AI-2.
as §5, with “V. harveyi BB170, S. typhimurium MET708 and E. coli MDAI-2 were diluted (1:4:8), respectively, into a single 1 ml volume of fresh LM medium without antibiotics. The co-culture was supplemented with either 20 μM or 40 μM analog initially and again after 3 and 5 hours of growth.” left out

E. coli W3110 pCT6 = assay: Trispecies synthetic ecosystem: AI-2 stimulated GFP expression, flow cytometry; assay type: cell-based; settings: trispecies co-culture, flow cytometry after 8 hours; 60.7% without analog
Source text: as §6
as §5, with “V. harveyi BB170, S. typhimurium MET708 and E. coli MDAI-2 were diluted (1:4:8), respectively, into a single 1 ml volume of fresh LM medium without antibiotics. The co-culture was supplemented with either 20 μM or 40 μM analog initially and again after 3 and 5 hours of growth.” left out

[4] = system: lsr expression in E. coli (lsr-lacZ reporter strains); assay: QS response (lsr expression): AI-2 dependent β-galactosidase production, Miller assay; assay type: cell-based, Escherichia coli; settings: E. coli SH3 (lsrK−, luxS−), 20 μM ethyl-DPD

CCCCCCCC(=O)C(=O)[C@@H](O)CO [Heptyl-DPD, heptyl-DPD]
inhibition of pyocyanin production [1]: some inhibition | bacterial species affected: E. coli (E. coli): x | IC50 [2]: 15900 nM | IC50 [3]: > 40000 nM

O=C(C(=O)C1CCCCC1)C(O)CO (centres unmarked) [Cyclohexyl-DPD, cyclohexyl-DPD]
bacterial species affected: E. coli (E. coli): x | phosphorylation by E. coli LsrK (LsrK): weakly phosphorylated | phosphorylation by E. coli LsrK (LsrK; listed as cyclohexyl): not phosphorylated | inhibition of AI-2-mediated lsr expression (β-galactosidase), in words ([2]; E. coli LW7 pLW11 (luxS−)): attenuated lsr expression in E. coli to a lesser extent | effect on AI-2-mediated lsr expression (β-galactosidase), in words ([3]; S. typhimurium MET715 (luxS−), 20 μM AI-2 (DPD) + 20 μM analog): increased expression | bacterial species affected: V. harveyi (V. harveyi): x

O=C(C(=O)C(O)CO)c1ccco1 (centres unmarked) [furanosyl-DPD, Furanyl DPD]
inhibition of AI-2-mediated lsr expression (β-galactosidase), in words ([2]; E. coli LW7 pLW11 (luxS−)): minimal | bacterial species affected: S. mutans (S. mutans): x

CCCCC(=O)C(=O)[C@@H](O)CO [Butyl-DPD, butyl-DPD]
bacterial species affected: E. coli (E. coli): x | IC50 [2]: 2970 nM | effect on native lsr expression (QS response) ([3]; S. typhimurium MET708 (luxS+), cells produce their own AI-2): considerable QS response reduction; also recorded: significantly inhibited signaling | IC50 [3]: > 40000 nM | bacterial species affected: V. harveyi (V. harveyi): x

O=C(C(=O)C1CCC1)C(O)CO (centres unmarked) [Cyclobutyl-DPD, Cyclobutyl DPD]
phosphorylation by E. coli LsrK (LsrK): significantly phosphorylated | inhibition of AI-2-mediated lsr expression (β-galactosidase), in words ([2]; E. coli LW7 pLW11 (luxS−)): inhibit lsr expression | bacterial species affected: S. mutans (S. mutans): x

CC(C)C(=O)C(=O)C(O)CO (centres unmarked) [isopropyl-DPD]
bacterial species affected: E. coli (E. coli): x | decrease of bioluminescence in V. harveyi (V. harveyi BB170; 20 μM): 50% | decrease of bioluminescence in V. harveyi (V. harveyi BB170; 40 μM): 50% | phosphorylation by LsrK (LsrK; incubation with LsrK and excess ATP for 2 hours (Example 1)): phosphorylated | effect on native lsr expression (QS response) ([2]; E. coli ZK126 pLW11 (luxS+), cells produce their own AI-2): substantial reduction; also recorded: partial antagonist | reduction of the S. typhimurium response, in words (S. typhimurium MET708): unable to cause any reduction | QS positive (green, GFP) cells of the E. coli population after analog addition (E. coli W3110 pCT6): 21.4%

CCC(=O)C(=O)[C@@H](O)CO [ethyl-DPD]
lsr transcription in LsrK knockout strain [4]: did not initiate lsr transcription | bacterial species affected: E. coli (E. coli): x | agonist activity for lsr expression ([2]; E. coli LW7 pLW11 (luxS−), analog only, no AI-2 added): agonist | agonist activity for lsr expression ([3]; S. typhimurium MET715 (luxS−), analog only, no AI-2 added): agonist | bacterial species affected: V. harveyi (V. harveyi): x
